Results taken from patent US7781464B2, “Heterocyclic diphenyl ethers” (Bexel Pharmaceuticals, Inc., priority 2003, dated 2010).

Tests used:
3T3-L1 fibroblasts = assay: Adipogenesis in 3T3-L1 fibroblasts (Oil-red-O staining); assay type: cell-based; conditions: stained on day 11, rosiglitazone 10 μM positive control
Description: All known PPAR-γ agonists (both TZD or non-TZDs) induce differentiation in the fibroblast cells. The adipogenic potential of these compounds are correlated with their affinity to this receptor. Referring to FIG. 3, to check whether the Compounds 1 and 2 have any affinity to these receptors, 3T3-L1 fibroblasts were treated with either DMSO control or rosiglitazone (all at 10 μM concentrations) as positive control or these two compounds for several days at different concentrations. On day 11th, the differentiated adipocytes were stained with Oil-red-O (Sigma) and washed thoroughly to remove the unbound stain. The stained differentiated adipocytes were visualized under high-resolution microscope.

3T3-L1 adipocytes = assay: Basal glucose uptake in 3T3-L1 adipocytes (14C-2-deoxyglucose); assay type: cell-based; conditions: 1.0 μM, 72 hours treatment, 10 minutes uptake without insulin, vs 0.1% DMSO
Description: Referring to FIG. 1, 3T3-L1 fibroblasts were differentiated to adipocytes by a cocktail containing insulin, dexamethasone and IBMX for four days. Fully differentiated adipocytes were treated with the compounds (1.0 μM concentrations) or 0.1% DMSO for 72 hours and then glucose uptake was carried out for 10 minutes without any addition of insulin. Basal uptake was initiated by addition of radioactive ^14C-2-deoxyglucose and after 10 minutes they were washed with cold PBS mixed with cold glucose. At the end, the cells were solubilized with 0.1% SDS and counted in a Beckman scintillation counter.

TNFα = TNFα inhibition in LPS-challenged human PBMC (ELISA); assay type: cell-based; conditions: 10 μM, LPS 100 ng/mL for 20 hours
Description: Referring to FIG. 7, human PBMC cells were cultured and incubated with Compound 1 and 2 at 10 μM concentration. Cells (1×10^6/mL) were challenged with lipopolysaccharides (LPS) at a concentration of (100 ng/mL) for 20 hours. TNF was measured by ELISA.

[1] = tested on: LPS-induced NO production; assay: Inhibition of LPS-induced NO production in RAW 264.7 macrophages (Griess nitrite); assay type: cell-based, mouse; conditions: RAW 264.7, 30 μM, LPS 200 ng/mL + IFN-γ 10 U/mL, 18 hours
Description: Mouse macrophages (RAW 264.7) were plated in 6-well plate (2 million cells/well), and incubated at 37° C. with LPS (200 ng/mL+IFN-γ 10 U/mL) for 18 hours. Nitrite levels were measured by the Griess reagent. All of the compounds were tested at 30 μM concentrations.

db/db mice [2] = assay: Oral glucose tolerance in db/db mice; assay type: in vivo; conditions: 50 mg/kg once daily for 14 days, oral glucose challenge 2 g/kg BW
Description: Referring to FIG. 5, db/db mice (6-8 weeks old) were treated with Compound 2 (50 mg/kg) once daily for 14 days. On day 14 the animals were fasted overnight and gavaged with Compound 2, one hour prior to oral glucose challenge (2 g/kg BW).

[3] = tested on: db/db (spontaneous model) diabetic mice; assay: Blood glucose lowering in db/db diabetic mice; assay type: in vivo; conditions: oral, 50 mg/kg body weight, daily
Description: Referring to FIG. 4, ten week old male db/db (spontaneous model) diabetic mice were orally treated with compound 1 at a dose of 50 mg/kg body weight and blood glucose was monitored by one touch glucometer every day morning before the next dose.

[4] = tested on: human liver cells (HepG2); assay: Cytotoxicity in HepG2 cells (MTS viability); conditions: 24 hours, up to 100 μM
Description: To find the cytotoxic effect of this class of new thiazolidinedione compounds (TZD), they were incubated in HepG2 cells for 24 hours and then the viability was measured by colorimetric reactions with MTS.

db/db mice [5] = assay: Serum cholesterol in db/db mice; assay type: in vivo; conditions: 50 mg/kg once daily for 14 days
Description: Referring to FIG. 6, db/db mice (6-8 weeks old) were treated with Compound 2 (50 mg/kg) once daily for 14 days. At the end of the study serum cholesterol was measured by a calorimetric method.

## {4-[4-(2,4-Dioxo-thiazolidin-5-ylmethyl)-phenoxy]-phenyl}-acetic acid disodium salt [Compound 2]
3T3-L1 fibroblasts
  adipogenesis (differentiation of fibroblasts, Oil-red-O): non-adipogenic
3T3-L1 adipocytes
  basal glucose uptake: induced glucose uptake over basal levels
TNFα
  inhibition of pro-inflammatory cytokines (TNF by ELISA): inhibit major pro-inflammatory cytokines
[1]
  inhibition of LPS-induced NO production (nitrite concentration): inhibition of LPS-induced NO production
db/db mice [2]
  glucose tolerance: improvement in glucose tolerance
[3]
  blood glucose: blood glucose lowering effect

## O=C(O)Cc1ccc(Oc2ccc(CC3SC(=O)NC3=O)cc2)cc1 (stereo not drawn) [Compound 1, {4-[4-(2,4-Dioxothiazolidin-5-ylmethyl)phenoxy]-phenyl}acetic acid]
[4]
  cytotoxicity (viability by MTS): did not show any toxicity
3T3-L1 fibroblasts
  adipogenesis (differentiation of fibroblasts, Oil-red-O): non-adipogenic
3T3-L1 adipocytes
  basal glucose uptake: induced glucose uptake over basal levels
TNFα
  inhibition of pro-inflammatory cytokines (TNF by ELISA): inhibit major pro-inflammatory cytokines
[1]
  inhibition of LPS-induced NO production (nitrite concentration): inhibition of LPS-induced NO production
db/db mice [5]
  serum cholesterol: serum cholesterol lowering effect
